Experimental data taken from the supplement of paper PMC10307832.

Experiments:
Experiment in all cases: relative viability (nuclei count vs DMSO), 5 days (fraction); higher = more cells survive
NCI-H661 = system: NCI-H661
Summary of the method: (§1)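 A single step with final 0.05% Triton X-100, 1% formaldehyde and 1 ug/ml Hoechst fixed the cells and stained nuclei 5 days after treatment. Lung cancer cell lines in 1536-well plates had been treated by pin tool the day after seeding with one drug alone or a fixed anchor-drug dose plus five library-drug doses (not always all listed) in √10 steps, and nuclei were counted on 4× images. Relative viability is the ratio of nuclei in treated wells to nuclei in vehicle wells, taken as the median of duplicate plates.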

PC-14 = system: PC-14
Summary of the method: as §1

ChaGo-K-1 = system: ChaGo-K-1
Summary of the method: as §1

RERF-LC-KJ = system: RERF-LC-KJ
Summary of the method: as §1

NCI-H23 = system: NCI-H23
Summary of the method: as §1

NCI-H2126 = system: NCI-H2126
Summary of the method: as §1

LCLC-97TM1 = system: LCLC-97TM1
Summary of the method: as §1

HCC-78 = system: HCC-78
Summary of the method: as §1

NCI-H647 = system: NCI-H647
Summary of the method: as §1

NCI-H2347 = system: NCI-H2347
Summary of the method: as §1

NCI-H1666 = system: NCI-H1666
Summary of the method: as §1

NCI-H2405 = system: NCI-H2405
Summary of the method: as §1

EPLC-272H = system: EPLC-272H
Summary of the method: as §1

HCC-827 = system: HCC-827
Summary of the method: as §1

NCI-H1915 = system: NCI-H1915
Summary of the method: as §1

NCI-H522 = system: NCI-H522
Summary of the method: as §1

NCI-H520 = system: NCI-H520
Summary of the method: as §1

NCI-H650 = system: NCI-H650
Summary of the method: as §1

H3255 = system: H3255
Summary of the method: as §1

201T = system: 201T
Summary of the method: as §1

NCI-H322M = system: NCI-H322M
Summary of the method: as §1

COR-L 105 = system: COR-L 105
Summary of the method: as §1

LC-2-ad = system: LC-2-ad
Summary of the method: as §1

NCI-H2087 = system: NCI-H2087
Summary of the method: as §1

C[C@@H]1CN(CC(=O)Nc2ccc3c(c2)Cc2cccc(-c4cc(=O)cc(N5CCOCC5)o4)c2S3)C[C@H](C)O1 + Cc1cc(Nc2cc(N3CCN(C)CC3)nc(Sc3ccc(NC(=O)C4CC4)cc3)n2)n[nH]1 [Tozasertib] (partner 0.1 µM) was tested, and the relative viability (NCI-H661; first compound 0.04 µM) was 0.345, the relative viability (NCI-H661; first compound 0.1265 µM) was 0.366 and the relative viability (NCI-H661; first compound 0.4 µM) was 0.355. For the same compound, the relative viability (NCI-H661; first compound 4 µM) was 0.366, the relative viability (PC-14; first compound 0.04 µM) was 0.451 and the relative viability (PC-14; first compound 0.1265 µM) was 0.562. For the same compound, the relative viability (PC-14; first compound 0.4 µM) was 0.579, the relative viability (PC-14; first compound 4 µM) was 0.482 and the relative viability (ChaGo-K-1; first compound 0.04 µM) was 0.264. It also gave a relative viability (ChaGo-K-1; first compound 0.1265 µM) of 0.209, a relative viability (ChaGo-K-1; first compound 0.4 µM) of 0.226 and a relative viability (ChaGo-K-1; first compound 4 µM) of 0.173. For the same compound, the relative viability (RERF-LC-KJ; first compound 0.04 µM) was 0.545, the relative viability (RERF-LC-KJ; first compound 0.1265 µM) was 0.48 and the relative viability (RERF-LC-KJ; first compound 0.4 µM) was 0.496. The relative viability (RERF-LC-KJ; first compound 4 µM) was 0.351, the relative viability (NCI-H23; first compound 0.04 µM) was 0.362 and the relative viability (NCI-H23; first compound 0.1265 µM) was 0.308. The relative viability (NCI-H23; first compound 0.4 µM) was 0.348, the relative viability (NCI-H23; first compound 4 µM) was 0.198 and the relative viability (NCI-H2126; first compound 0.04 µM) was 0.898. The relative viability (NCI-H2126; first compound 0.1265 µM) was 0.83, the relative viability (NCI-H2126; first compound 0.4 µM) was 0.793 and the relative viability (NCI-H2126; first compound 4 µM) was 0.699. For the same compound, the relative viability (LCLC-97TM1; first compound 0.04 µM) was 0.27, the relative viability (LCLC-97TM1; first compound 0.1265 µM) was 0.226 and the relative viability (LCLC-97TM1; first compound 0.4 µM) was 0.214. For the same compound, the relative viability (LCLC-97TM1; first compound 4 µM) was 0.207, the relative viability (HCC-78; first compound 0.04 µM) was 0.397 and the relative viability (HCC-78; first compound 0.1265 µM) was 0.386. It also gave a relative viability (HCC-78; first compound 0.4 µM) of 0.361, a relative viability (HCC-78; first compound 4 µM) of 0.318 and a relative viability (NCI-H647; first compound 0.04 µM) of 0.461. It also gave a relative viability (NCI-H647; first compound 0.1265 µM) of 0.278, a relative viability (NCI-H647; first compound 0.4 µM) of 0.344 and a relative viability (NCI-H647; first compound 4 µM) of 0.192. For the same compound, the relative viability (NCI-H2347; first compound 0.04 µM) was 0.598, the relative viability (NCI-H2347; first compound 0.1265 µM) was 0.646 and the relative viability (NCI-H2347; first compound 0.4 µM) was 0.535. It also gave a relative viability (NCI-H2347; first compound 4 µM) of 0.448, a relative viability (NCI-H1666; first compound 0.04 µM) of 0.637 and a relative viability (NCI-H1666; first compound 0.1265 µM) of 0.689. The relative viability (NCI-H1666; first compound 0.4 µM) was 0.622, the relative viability (NCI-H1666; first compound 4 µM) was 0.43 and the relative viability (NCI-H2405; first compound 0.04 µM) was 0.676. The relative viability (NCI-H2405; first compound 0.1265 µM) was 0.766, the relative viability (NCI-H2405; first compound 0.4 µM) was 0.703 and the relative viability (NCI-H2405; first compound 4 µM) was 0.695. It also gave a relative viability (EPLC-272H; first compound 0.04 µM) of 0.189, a relative viability (EPLC-272H; first compound 0.1265 µM) of 0.237 and a relative viability (EPLC-272H; first compound 0.4 µM) of 0.256. The relative viability (EPLC-272H; first compound 4 µM) was 0.243, the relative viability (HCC-827; first compound 0.04 µM) was 0.451 and the relative viability (HCC-827; first compound 0.1265 µM) was 0.396. The relative viability (HCC-827; first compound 0.4 µM) was 0.41, the relative viability (HCC-827; first compound 4 µM) was 0.427 and the relative viability (NCI-H1915; first compound 0.04 µM) was 0.364. It also gave a relative viability (NCI-H1915; first compound 0.1265 µM) of 0.422, a relative viability (NCI-H1915; first compound 0.4 µM) of 0.399 and a relative viability (NCI-H1915; first compound 4 µM) of 0.314. It also gave a relative viability (NCI-H522; first compound 0.04 µM) of 0.542, a relative viability (NCI-H522; first compound 0.1265 µM) of 0.56 and a relative viability (NCI-H522; first compound 0.4 µM) of 0.583. For the same compound, the relative viability (NCI-H522; first compound 4 µM) was 0.557, the relative viability (NCI-H520; first compound 0.04 µM) was 0.474 and the relative viability (NCI-H520; first compound 0.1265 µM) was 0.454. The relative viability (NCI-H520; first compound 0.4 µM) was 0.356, the relative viability (NCI-H520; first compound 4 µM) was 0.448 and the relative viability (NCI-H650; first compound 0.04 µM) was 0.655. The relative viability (NCI-H650; first compound 0.1265 µM) was 0.811, the relative viability (NCI-H650; first compound 0.4 µM) was 0.698 and the relative viability (NCI-H650; first compound 4 µM) was 0.581. It also gave a relative viability (H3255; first compound 0.04 µM) of 0.694, a relative viability (H3255; first compound 0.1265 µM) of 0.606 and a relative viability (H3255; first compound 0.4 µM) of 0.625. For the same compound, the relative viability (H3255; first compound 4 µM) was 0.492, the relative viability (201T; first compound 0.04 µM) was 0.93 and the relative viability (201T; first compound 0.1265 µM) was 0.882. The relative viability (201T; first compound 0.4 µM) was 0.909, the relative viability (201T; first compound 4 µM) was 0.922 and the relative viability (NCI-H322M; first compound 0.04 µM) was 0.489. For the same compound, the relative viability (NCI-H322M; first compound 0.1265 µM) was 0.486, the relative viability (NCI-H322M; first compound 0.4 µM) was 0.449 and the relative viability (NCI-H322M; first compound 4 µM) was 0.432. The relative viability (COR-L 105; first compound 0.04 µM) was 0.321, the relative viability (COR-L 105; first compound 0.1265 µM) was 0.332 and the relative viability (COR-L 105; first compound 0.4 µM) was 0.352. It also gave a relative viability (COR-L 105; first compound 4 µM) of 0.296, a relative viability (LC-2-ad; first compound 0.04 µM) of 0.373 and a relative viability (LC-2-ad; first compound 0.1265 µM) of 0.454. The relative viability (LC-2-ad; first compound 0.4 µM) was 0.467, the relative viability (LC-2-ad; first compound 4 µM) was 0.44 and the relative viability (NCI-H2087; first compound 0.04 µM) was 0.309. The relative viability (NCI-H2087; first compound 0.1265 µM) was 0.249, the relative viability (NCI-H2087; first compound 0.4 µM) was 0.333 and the relative viability (NCI-H2087; first compound 4 µM) was 0.228.
